According to US20060293264A1, “STAT3 decoy oligonucleotides and uses therefor” (priority 2004, published 2006):
“Also recorded” adds a separate entry of the source.

How the values were obtained:
[1] = test system: normal mucosal epithelial cells; settings: cited from earlier work
GAS-responsive element = assay: pGAS-Luc reporter gene assay in UM-22B SCCHN cells; assay type: cell-based; settings: UM-22B pGAS-Luc, 2 μg transfected, 24 hrs, IFN-γ stimulation
Method: FIG. 9 depicts the inhibition of reporter gene expression from GAS-responsive element in SCCHN cells. An SCCHN cell line, UM-22B, was used to generate a stable cell line expressing a pGAS-Luc reporter gene (pGAS-Luc plasmid carrying 4 repeats of GAS sequence: [NT] ID NO: 31), was obtained from Stratagene, Catalog number: 219091-51). The cells were transfected with 2 μg of the STAT3 decoy or the control mutant decoy. At 24 hrs after transfection, luciferase activity was measured and normalized to the total amount of protein.

[2] = test system: Egr-1 transcription recognition sequence; assay: pEgr-1-Luc reporter assay in SCCHN cells; assay type: cell-based; settings: SCCHN cells co-transfected with 2 μg pEgr-1-Luc and 2 μg decoy, 24 hrs
Method: STAT3 decoy-specific transcriptional repression of Egr-1(Early Growth Response -1 enhancer, pEGR-1-Luc, Stratagene Cat. No. 240130, containing three repeats of the Egr-1 transcription recognition sequence: 5′-GGGTGGGGN-3′ (SEQ ID NO: 31) was also observed. SCCHN cells were co-transfected with 2 μg pEgr-1-Luc plasmid and 2 μg of the STAT3 decoy or the control mutant decoy. At 24 hrs after transfection, luciferase activity was measured and normalized to the total amount of protein according to standard methods.

Cyclin D1 [3] = assay: Cyclin D1 expression by immunoblotting in SCCHN cells in vitro; assay type: cell-based, human; settings: 1483 cells; 25 μM, 6 days; p<0.0001
Method: (§1) Immunoblotting. Whole cell extracts were mixed with 2× sodium dodecyl sulfate (SDS) sample buffer (125 mmol/L Tris-HCL, pH 6.8; 4% SDS; 20% glycerol; 10% 2 mercaptoethanol) at 1:1 ratio and were heated for 5 min at 100° C. Proteins (50 μg/lane) were separated by 12.5% SDS-PAGE and transferred onto a nitrocellulose membrane (MSI; Westboro, Mass). Prestained molecular weight markers (GIBCO BRL; Gaithersburg, MD) were included in each gel. Membranes were blocked for 30 min in Tris-buffered saline (TBS: 10 mmol/L Tris-HCL, pH 7.5 and 150 mmol/L NaCl) with 0.5% Tween-20 (TBST) and 5% BSA. […] Quantification of Cyclin D1 and Bcl-xL was performed by using a Molecular Dynamics Personal Densitometer SI and IMAGEQUANT software (Image Products International, Chantilly, Va.). Immunoblotting bands were quantified by densitometry and the Molecular Analyst software (AlphaDigidoc 1000, Alpho-Innotech) with normalization of each band to their corresponding loading control (Xi, S., et al. J Biol Chem, 278: 31574-31583, 2003). […]
As shown above, treatment with the STAT3 decoy abrogates STAT3 target gene expression in vivo. […] The data were analyzed using parametric analysis of variance of a two-way factorial design. […]

Cyclin D1 [4] = assay: Cyclin D1 expression by immunoblotting in harvested xenografts; assay type: in vivo, human; settings: decoy alone, p=0.0022
Method: as §1, with “BSA. After blocking, membranes were incubated with a primary antibody; rabbit anti-human VEGF polyclonal antibody, rabbit anti-human Cyclin D1 polyclonal antibody, mouse anti-human Bcl-xL monoclonal antibody, or rabbit anti-human PCNA polyclonal antibody (Santa Cruz Biotechnology, Santa Cruz, Calif.), in TBST and 1% BSA.” for “BSA.”

STAT5 = STAT5 activation by EMSA in harvested xenografts; assay type: in vivo; settings: xenografts after 25 treatments; specificity
[5] = test system: SCCHN xenografts (1483 cells); assay: In vivo tumor xenograft study, tumor volumes; design: species or system athymic nude mice; settings: 25 μg intratumoral daily, 1483 xenografts, nude mice; p=0.002
Method: Statistics. In vivo comparisons of STAT3, cyclin D1 and Bcl-xL expression levels were conducted with the Wilcoxon test for comparing two groups or the Kruskal-Wallis test for comparing three groups. All tests were exact and two-tailed. Studies of the joint effect of STAT3 decoy and cisplatin upon in vitro apoptosis were evaluated with a two way factorial design. Additive and synergistic effects of the STAT3 decoy and cisplatin were tested with a permutation test. In vivo tumor xenograft experiments were analyzed with mixed linear models that assumed animals were random effects having an unstructured within-animal covariance matrix. Data were log transformed and examined for the interaction between treatment group and day of observation beginning with day 10 after tumor inoculation, differences between treatment groups were estimated and tested with the pooled estimated standard error. Multiple comparisons were controlled by simulating observations from a multivariate t distribution with the same covariance matrix as the observed data and adjusting p values accordingly.
In vivo tumor xenograft studies. Female athymic nude mice nu/nu (4-6 weeks old; 20±2 g; Harlan-Sprague-Dawley) were implanted with 1×10^6 1483 cells into the right and left flank with a 26-gauge needle/1 ml tuberculin syringe, resulting in two tumors per mouse. […]

Q: For “STAT3 decoy (sense CATTTCCCGTAAATC; antisense GATTTACGGGAAATG; phosphorothioate modified, further chemistry not given here; listed as Homo sapiens)”, which “toxicity to normal mucosal epithelial cells” value [1] is on record?
A: lack toxicity

Q: And the “reporter gene expression from a GAS-responsive element (STAT1 reporter activity)” value (GAS-responsive element)?
A: inhibit

Q: What about the “transcriptional repression of Egr-1 enhancer reporter” value [2] of the same substance?
A: observed

Q: What about the “Cyclin D1 expression compared with mutant control decoy” value (Cyclin D1 [3]) of the same substance?
A: decreased

Q: What about the “Cyclin D1 expression levels compared with mutant control decoy” value (Cyclin D1 [4]) of the same substance?
A: significant effect

Q: And the STAT5 activation (STAT5)?
A: no abrogation

Q: And the “tumor growth (tumor volumes) compared with mutant control decoy” value [5]?
A: significantly decreased; also recorded: growth inhibited
